Article doi:10.1101/2023.09.03.556088, “Protein coopted from a phage restriction system dictates orthogonal cell division plane selection in Staphylococcus aureus” (bioRxiv, 2023)

Legend:
PcdA = molecular target: T1, PcdA (Staphylococcus aureus, UniProt A0A0H2XHA0); assay: inorganic phosphate release (PiColorLock); type: biochemical; settings: 50 mM Tris-HCl pH 8.0, 150 mM KCl, 5 mM MgCl2, 37 °C, 0.25-4 mM NTP, 2.5 μM protein
T1 construct: gene SAUSA300_2094; full-length, untagged; His6-SUMO fusion (pTB146, pFRL159) cleaved with Ulp1; expressed in E. coli BL21(DE3)
T1 sequence (A0A0H2XHA0 1-457): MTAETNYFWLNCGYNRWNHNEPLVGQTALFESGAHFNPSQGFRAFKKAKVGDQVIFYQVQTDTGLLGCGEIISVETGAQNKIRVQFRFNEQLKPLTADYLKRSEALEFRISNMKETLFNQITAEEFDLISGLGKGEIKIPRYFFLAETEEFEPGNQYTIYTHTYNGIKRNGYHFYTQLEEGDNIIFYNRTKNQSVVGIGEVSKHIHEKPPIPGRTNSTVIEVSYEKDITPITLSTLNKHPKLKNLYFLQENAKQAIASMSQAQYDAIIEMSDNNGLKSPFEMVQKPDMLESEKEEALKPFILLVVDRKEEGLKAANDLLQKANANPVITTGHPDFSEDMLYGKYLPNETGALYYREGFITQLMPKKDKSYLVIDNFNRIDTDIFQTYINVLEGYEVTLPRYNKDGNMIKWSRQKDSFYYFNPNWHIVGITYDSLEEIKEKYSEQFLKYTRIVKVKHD

[1] = molecular target: the molecule itself; assay: co-sedimentation; with 2 mM GMPCPP; 30 μM FtsZ with or without PcdA (5 μM in the legend, 10 μM in the methods); 20 mM HEPES pH 7.5, 140 mM KCl, 5 mM MgCl2; 10 min at 37 °C, then 30 min at 129,000 × g; supernatant and pellet on SDS-PAGE, Coomassie

With Nc1ncnc2c1ncn2[C@@H]1O[C@H](COP(=O)(O)OP(=O)(O)OP(=O)(O)O)[C@@H](O)[C@H]1O [ATP] the kcat (PcdA) was “Incubation of increasing concentrations of either ATP or GTP with PcdA produced saturation curves”.

With Nc1nc2c(ncn2[C@@H]2O[C@H](COP(=O)(O)OP(=O)(O)OP(=O)(O)O)[C@@H](O)[C@H]2O)c(=O)[nH]1 [GTP] the kcat (PcdA) was “Incubation of increasing concentrations of either ATP or GTP with PcdA produced saturation curves”.

B1: FtsZ (purified recombinant untagged S. aureus FtsZ) (natural protein, UniProt P0A031 1-390, looked up)
chain: MLEFEQGFNHLATLKVIGVGGGGNNAVNRMIDHGMNNVEFIAINTDGQALNLSKAESKIQIGEKLTRGLGAGANPEIGKKAAEESREQIEDAIQGADMVFVTSGMGGGTGTGAAPVVAKIAKEMGALTVGVVTRPFSFEGRKRQTQAAAGVEAMKAAVDTLIVIPNDRLLDIVDKSTPMMEAFKEADNVLRQGVQGISDLIAVSGEVNLDFADVKTIMSNQGSALMGIGVSSGENRAVEAAKKAISSPLLETSIVGAQGVLMNITGGESLSLFEAQEAADIVQDAADEDVNMIFGTVINPELQDEIVVTVIATGFDDKPTSHGRKSGSTGFGTSVNTSSNATSKDESFTSNSSNAQATDSVSERTHTTKEDDIPSFIRNREERRSRRTRR
notes: FtsZ, tubulin homolog, Staphylococcus aureus; Polymerised with GMPCPP in the co-sedimentation assay, unpolymerised (no GTP) in the filter retention assay
B1: binds [1].
